Assay results as given in patent US20040037806A1, “Aldosterone blocker therapy to prevent or treat inflammation-related disorders” (Pharmacia Corporation, priority 2002, published 2004).
“Also recorded” adds a separate entry of the source.

Experiments:
Assay type in all cases: in vivo, rat
[1] = tested on: Vascular Cell Adhesion Molecule-1 (VCAM-1); experiment: Assay C: VCAM-1 mRNA, TaqMan; details: aldosterone+salt alone or with eplerenone 100 mg/kg/day; increase at day 30 did not reach statistical significance
Protocol: (§1) The procedure of Assay B was expanded upon in a further study. […] Myocardial tissue from animals in each treatment group was examined after 7, 14, or 30 days of treatment.
(§2) Potassium chloride supplementation was added to the saline solution in order to prevent the potential hypokalemia associated with aldosterone excess.
(§3) Treatment At the time of the surgery, an Alzet 2002 osmotic minipump (Alza Corp., Palo Alto, Calif.) containing either vehicle (9% ethanol/87% propylene glycol/4% dH2O) or 1.0 mg/mL d-aldosterone (Sigma Chemical, St. Louis, Mo.) was inserted subcutaneously at the nape of the neck. Aldosterone was administered at a dose of 0.75 µg/hour. […]
(§4) The fluorogenic 5′-nuclease assay (TaqMan PCR) using Applied Biosystems' 7700 Sequence Detection System (Applied Biosystems, Foster City, Calif.) allowed for real time detection/quantitation of a specific gene by monitoring the increase in fluorescence of a gene-specific, dye-labeled oligonucleotide probe. […] When the probe was annealed to the target gene, fluorescence of 6FAM was prevented by the close proximity of TAMRA. The exonuclease activity of Taq polymerase released the dyes from the oligonucleotide probe by displacing the probe from the target sequence resulting in fluorescence excitation in direct proportion to the amount of target message present. […]

[2] = Assay C: histopathologic analysis, semi-quantitative myocardial injury score 0 to 4; details: 7, 14 and 30 days; aldosterone+salt alone or with eplerenone 100 mg/kg/day
Protocol: The procedure of Assay B was expanded upon in a further study. […] Myocardial tissue from animals in each treatment group was examined after 7, 14, or 30 days of treatment. […] Lesions were preceded by the expression and progressive upregulation of proinflammatory molecules. […] Prior to surgery the animals were individually weighed and placed in one of the following groups: […] Potassium chloride supplementation was added to the saline solution in order to prevent the potential hypokalemia associated with aldosterone excess. Treatment At the time of the surgery, an Alzet 2002 osmotic minipump (Alza Corp., Palo Alto, Calif.) containing either vehicle (9% ethanol/87% propylene glycol/4% dH2O) or 1.0 mg/mL d-aldosterone (Sigma Chemical, St. Louis, Mo.) was inserted subcutaneously at the nape of the neck. Aldosterone was administered at a dose of 0.75 µg/hour. […] Animals were sacrificed from each group (n=8-13) after 7, 14, or 30 days of treatment. The equatorial regions of the heart were routinely processed into paraffin with an automated tissue processor (Hypercenter XP, Shandon/Lipshaw Inc., Pittsburgh, Pa.) and embedded into fresh paraffin apical side down (Shandon Embedding Center, Shandon/Lipshaw Inc.). […] Semi-quantification of myocardial injury was performed as described previously with minor modifications (7). […]

osteopontin = experiment: Assay C: Osteopontin mRNA, TaqMan; details: 7, 14, 30 days; aldosterone+salt alone or with eplerenone 100 mg/kg/day
Protocol: as §1, §2, §3, §4

Question: For `C[C@]12CCC(=O)C=C1CC[C@@H]1[C@@H]2[C@@H](O)C[C@]2(C=O)[C@@H](C(=O)CO)CC[C@@H]12` [aldosterone], which “VCAM-1 gene expression in myocardium” value [1] is on record?
Answer: increased two-fold at day 30

Question: What about the “Myocardial tissue damage (histopathology)” value [2] of the same molecule?
Answer: No vascular or myocardial lesions; also recorded: focal arterial and myocardial alterations were observed starting at 14 days

Question: What about the “Osteopontin mRNA expression in myocardium” value (osteopontin) of the same molecule?
Answer: markedly upregulated

Question: Which results are given for `COC(=O)[C@@H]1CC2=CC(=O)CC[C@]2(C)[C@@]23O[C@@H]2C[C@@]2(C)[C@@H](CC[C@@]24CCC(=O)O4)[C@H]13` [eplerenone]?
Answer: VCAM-1 gene expression in myocardium [1]: significantly reduced; also recorded: inhibition of early time-course expression of myocardial ICAM-1 and VCAM-1; Myocardial tissue damage (histopathology) [2]: markedly attenuated myocardial injury at all time points; Osteopontin mRNA expression in myocardium (osteopontin): significantly reduced; also recorded: inhibition of early time-course expression of myocardial osteopontin
